# Where two headings read alike, the source gives them in different places.
# Columns and labels:
# [1] = target: T1, recombinant human cGAS (aa147-522) (Homo sapiens, UniProt Q8N884); assay: In vitro inhibition assay of cGAS activity (ATP consumption, KinaseGlo Max); format: biochemical
# T1 construct: recombinant human cGAS (aa147-522); His6-SUMO (cleaved yes); made in house; host or cells: E. coli BL21/pLys
# In short: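 IC50 came from plotting % ATP consumption against log compound concentration, with leftover ATP detected by KinaseGlo Max chemiluminescence. Reactions ran 20 min at 37 °C with 1.5 μg/mL human cGAS (aa147-522), 6.6 μM ATP, 0.1 mM GTP and 0.01 mg/mL DNA at pH 7.5.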
# [2] = tested on: cGAS activity in Reporter THP1 cell line; assay: Cellular assay to measure cGAS activity: ISRE-Gaussia luciferase reporter THP1 cells transfected with ISD; format: cell-based; details: Homo sapiens
# Description: Cellular assay to measure cGAS activity: Reporter THP1 cell line harboring a gene encoding Gaussia Luciferase under the control of 5 tandem repeats of interferon-stimulated response elements (ISRE) fused to an ISG54 minimal promoter was used to test inhibition of cGAS activity by synthetic compounds in human cells. These cells were plated on 96-well plates at 0.3×10^6/well and incubated with serial dilutions of compounds or DMSO for 5 min, followed by transfection of 2 μg/mL of ISD (Interferon Stimulatory DNA, a 45 bp DNA oligo) or mock transfected using lipofectamine 2000 (Life Technology) method, according to manufacturer's instructions. 16 hours later, 15 μL of the media from each well was transferred to a new plate, 50 μL of solution containing 50 mM Hepes-NaOH, pH 6.5, 50 mM NaCl, 10 mM EDTA, 1 μM of coelenterazine was added to each well and luminescence was measured immediately. Fold increase in luminescence compared to mock transfection was plotted against concentrations of each compound, and IC50 is calculated using Graphpad. To evaluate the specificity of a compound, the same procedure was performed except that cells were transfected with 2 μg/mL poly(I:C) or infected with Sendai Virus (SeV) at 50 Unit/mL, which are known to activate the RIG-I-MAVS pathway. A specific inhibitory compound should inhibit interferon induction by DNA but have minimal effect on poly(I:C) or Sendai virus induced interferon reporter gene expression.
# The letter codes for cGAS IC50 include: A (<2 μM); B (2-10 μM); C (>10 μM).
# [3] = Table 3, read-out: cGAS Inhibition Results IC50
# [4] = THP-1, Table 4, Gaussia luciferase
# [5] = THP-1, untitled table after Table 4 (continuation)
# [6] = Table 2, read-out: cGAS Inhibition Results IC50
# T1 sequence (Q8N884 147-522): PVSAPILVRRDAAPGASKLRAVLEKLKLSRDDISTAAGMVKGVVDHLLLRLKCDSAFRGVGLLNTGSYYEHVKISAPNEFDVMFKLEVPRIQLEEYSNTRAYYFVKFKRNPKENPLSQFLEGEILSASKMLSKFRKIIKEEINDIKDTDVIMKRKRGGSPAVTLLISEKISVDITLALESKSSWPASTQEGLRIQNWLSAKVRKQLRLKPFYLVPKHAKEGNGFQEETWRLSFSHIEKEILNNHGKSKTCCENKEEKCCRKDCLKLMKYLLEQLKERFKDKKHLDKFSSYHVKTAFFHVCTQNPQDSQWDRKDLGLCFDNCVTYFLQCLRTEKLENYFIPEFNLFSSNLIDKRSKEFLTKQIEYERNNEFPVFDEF
"IC50 [1, 3] [nM]","IC50 [2, 4] [nM]","IC50 [2, 5] [nM]","IC50 [1, 6] [nM]",Structure (SMILES)
< 2000,< 2000,,,O=C(O)CCCCCNc1cc(-n2ccnc2)c2ccc(Cl)c(Cl)c2n1 [I-690]
< 2000,,< 2000,,CN(Cc1cccc(CC(=O)O)c1)c1cc(-n2ccnc2)c2ccc(Cl)c(Cl)c2n1 [I-845]
,2000 to 10000,,< 2000,O=C(O)C[C@@H]1CCCN1c1cc(-n2ccnc2)c2ccc(Cl)c(Cl)c2n1 [I-443]
< 2000,2000 to 10000,,,O=C(O)CCOC[C@@H]1CN(c2cc(-c3cn[nH]c3)c3ccc(Cl)c(Cl)c3n2)CCO1 [I-741]
2000 to 30000,2000 to 10000,,,COC(=O)[C@@H]1[C@@H]2C[C@@H]2CN1c1cc(-n2ccnc2)c2ccc(Cl)c(Cl)c2n1 [I-577]
< 2000,,> 10000,,O=C(O)CCOC1CCN(c2cc(-n3ccnc3)c3ccc(Cl)c(Cl)c3n2)CC1 [I-864]
< 2000,< 2000,,,O=C(O)c1ccccc1OC[C@@H]1CCCN1c1cc(-n2ccnc2)c2ccc(Cl)c(Cl)c2n1 [I-733]
2000 to 30000,> 10000,,,COC(=O)[C@@H]1[C@H](O)CCN1c1cc(-n2ccnc2)c2ccc(Cl)c(Cl)c2n1 [I-597]
< 2000,2000 to 10000,,,O=C(O)c1cnn(CC[C@@H]2CCCN2c2cc(-n3ccnc3)c3ccc(Cl)c(Cl)c3n2)c1 [I-730]
2000 to 30000,2000 to 10000,,,COC(=O)CC[C@@H]1CCCN1c1cc(-n2ccnc2)c2ccc(Cl)c(Cl)c2n1 [I-680]
< 2000,2000 to 10000,,,C[C@H]1CC[C@@H](C(=O)O)N1c1cc(-n2ccnc2)c2ccc(Cl)c(Cl)c2n1 [I-507]
< 2000,< 2000,,,O=C(O)CCOCC[C@@H]1CCCN1c1cc(-n2ccnc2)c2ccc(Cl)c(Cl)c2n1 [I-672]
< 2000,2000 to 10000,,,COC(=O)CCOC[C@@H]1[C@@H](O)CCN1c1cc(-n2ccnc2)c2ccc(Cl)c(Cl)c2n1 [I-701]
< 2000,< 2000,,,O=C(O)CCCC[C@@H]1CCCN1c1cc(-n2ccnc2)c2ccc(Cl)c(Cl)c2n1 [I-683]
2000 to 30000,2000 to 10000,,,CCOC(=O)[C@@H]1CCCN1c1cc(-n2ccnc2)c2ccc(Cl)c(Cl)c2n1 [I-594]
< 2000,,> 10000,,"O=C(O)[C@@H]1[C@H](CO)CCN1c1cc(-n2ccnc2)c2ccc(Cl)c(Cl)c2n1 (racemic) [I-782, 1-(7,8-dichloro-4-(1H-imidazol-1-yl)quinolin-2-yl)-3-(hydroxymethyl)pyrrolidine-2-carboxylic acid]"
< 2000,2000 to 10000,,,COC(=O)C(F)COC[C@@H]1CCCN1c1cc(-n2ccnc2)c2ccc(Cl)c(Cl)c2n1 (stereo partly shown) [I-700]
< 2000,,< 2000,,COc1ccc(-c2cc(-n3ccnc3)c3ccc(Cl)c(Cl)c3n2)cc1COCCC(=O)O [I-884]
< 2000,< 2000,,,O=C(O)[C@@H]1C[C@@H]2C[C@@H]2N1c1cc(-n2ccnc2)c2ccc(Cl)c(Cl)c2n1 [I-469]
< 2000,,< 2000,,O=C(O)CCOCc1ccc(Cl)c(-c2cc(-n3ccnc3)c3ccc(Cl)c(Cl)c3n2)c1 [I-878]
< 2000,< 2000,,,C[C@@]1(COCCC(=O)O)CCCN1c1cc(-n2ccnc2)c2ccc(Cl)c(Cl)c2n1 [I-696]
< 2000,2000 to 10000,,,"O=C(O)CCOCC[C@@H]1CC[C@@H](C(=O)O)N1c1cc(-n2ccnc2)c2ccc(Cl)c(Cl)c2n1 [I-714, (2S,5S)-5-(2-(2-carboxyethoxy)ethyl)-1-(7,8-dichloro-4-(1H-imidazol-1-yl)quinolin-2-yl)pyrrolidine-2-carboxylic acid]"
,2000 to 10000,,< 2000,OC[C@@H]1CCCN1c1cc(-n2ccnc2)c2ccc(Cl)c(Cl)c2n1 [I-139]
< 2000,2000 to 10000,,,OCCCOCC[C@@H]1CCCN1c1cc(-n2ccnc2)c2ccc(Cl)c(Cl)c2n1 [I-678]
< 2000,,2000 to 10000,,"O=C1C[C@@H]2[C@@H](CCN2c2cc(-n3ccnc3)c3ccc(Cl)c(Cl)c3n2)O1 [I-774, (3aR,6aR)-4-(7,8-dichloro-4-(1H-imidazol-1-yl)quinolin-2-yl)hexahydro-2H-furo[3,2-b]pyrrol-2-one]"

"IC50 [1, 3] [nM]","IC50 [2, 4] [nM]","IC50 [2, 5] [nM]","IC50 [1, 6] [nM]",Structure (SMILES)
,2000 to 10000,,< 2000,COc1ccc(-c2cc(-n3ccnc3)c3ccc(Cl)c(Cl)c3n2)cc1C(=O)O [I-39]
2000 to 30000,,> 10000,,"O=C(O)CCNC[C@@H]1CCCN1c1cc(-n2ccnc2)c2ccc(Cl)c(Cl)c2n1 [I-756, (5)-3-(((1-(7,8-dichloro-4-(1H-imidazol-1-yl)quinolin-2-yl)pyrrolidin-2-yl)methyl)amino)propanoic acid]"
< 2000,< 2000,,,O=C(O)CCCC[C@@H]1CCCN1c1cc(-c2cn[nH]c2)c2ccc(Cl)c(Cl)c2n1 [I-684]
< 2000,< 2000,,,O=C(O)CCCCOC[C@@H]1CCCN1c1cc(-n2ccnc2)c2ccc(Cl)c(Cl)c2n1 [I-676]
< 2000,,< 2000,,O=C(O)CCOC[C@@H]1CCCN1c1cc(-n2ccnc2)c2cc(Br)c(Cl)c(Cl)c2n1 [I-857]
< 2000,,< 2000,,O=C(O)CCOC[C@@H]1C[C@H](C(F)(F)F)CN1c1cc(-n2ccnc2)c2ccc(Cl)c(Cl)c2n1 [I-793]
< 2000,< 2000,,,COC(=O)[C@@H]1CC2C[C@@H]2N1c1cc(-n2ccnc2)c2ccc(Cl)c(Cl)c2n1 (stereo partly shown) [I-576]
< 2000,,< 2000,,C[C@@H]1C[C@@H](COCCC(=O)O)N(c2cc(-n3ccnc3)c3ccc(Cl)c(Cl)c3n2)C1 [I-795]
< 2000,< 2000,,,O=C(O)CCCC1CCCN(c2cc(-n3ccnc3)c3ccc(Cl)c(Cl)c3n2)C1 (stereo not shown) [I-739]
> 30000,> 10000,,,"COC(=O)CCNC[C@@H]1CCCN1c1cc(-n2ccnc2)c2ccc(Cl)c(Cl)c2n1 [I-753, methyl (S)-3-(((1-(7,8-dichloro-4-(1H-imidazol-1-yl)quinolin-2-yl)pyrrolidin-2-yl)methyl)amino)propanoate]"
< 2000,< 2000,,,O=C(O)CCOC[C@@H]1C[C@@H](OCc2ccccc2)CN1c1cc(-n2ccnc2)c2ccc(Cl)c(Cl)c2n1 [I-712]
< 2000,,2000 to 10000,,O=C(O)CCOC[C@@H]1Cc2ccccc2N1c1cc(-n2ccnc2)c2ccc(Cl)c(Cl)c2n1 [I-806]
< 2000,2000 to 10000,,,O=C(O)CCO[C@@H]([C@@H]1CCCN1c1cc(-n2ccnc2)c2ccc(Cl)c(Cl)c2n1)C(F)(F)F [I-722]
2000 to 30000,2000 to 10000,,,Clc1ccc2c(-n3ccnc3)cc(N3CCCC3c3ncc[nH]3)nc2c1Cl (stereo not shown) [I-467]
< 2000,,< 2000,,O=C(O)CCOCc1cc(Cl)cc(-c2cc(-n3ccnc3)c3ccc(Cl)c(Cl)c3n2)c1 [I-879]
< 2000,> 10000,,,COC(=O)CCOC[C@@H]1CN(c2cc(-c3cn[nH]c3)c3ccc(Cl)c(Cl)c3n2)CCO1 [I-752]
< 2000,> 10000,,,O=C(O)[C@@H]1[C@H]2CC[C@H](C2)N1c1cc(-n2ccnc2)c2ccc(Cl)c(Cl)c2n1 [I-516]
< 2000,> 10000,,,"O=C(O)C(F)COC[C@@H]1CCCN1c1cc(-n2ccnc2)c2ccc(Cl)c(Cl)c2n1 (stereo partly drawn) [I-716, 3-(((S)-1-(7,8-dichloro-4-(1H-imidazol-1-yl)quinolin-2-yl)pyrrolidin-2-yl)methoxy)-2-fluoropropanoic acid]"
< 2000,< 2000,,,"COC(=O)CCOC[C@@H]1CCCN1c1cc(-n2ccnc2)c2ccc(Cl)c(Cl)c2n1 [I-665, methyl (S)-3-((1-(7,8-dichloro-4-(1H-imidazol-1-yl)quinolin-2-yl)pyrrolidin-2-yl)methoxy)propanoate]"
< 2000,,< 2000,,"O=C(O)Cc1cc(F)cc(CNc2cc(-n3ccnc3)c3ccc(Cl)c(Cl)c3n2)c1 [I-891, 2-(3-(((7,8-dichloro-4-(1H-imidazol-1-yl)quinolin-2-yl)amino)methyl)-5-fluorophenyl)acetic acid]"
2000 to 30000,2000 to 10000,,,O=C(O)CCOCC(Cc1ccccc1)Nc1cc(-n2ccnc2)c2ccc(Cl)c(Cl)c2n1 (stereo not shown) [I-695]
< 2000,,< 2000,,CCN(CCOCCC(=O)O)c1cc(-n2ccnc2)c2ccc(Cl)c(Cl)c2n1 [I-832]
< 2000,> 10000,,,O=C(O)CCOCC1CC(O)CN(c2cc(-n3ccnc3)c3ccc(Cl)c(Cl)c3n2)C1 (stereo not shown) [I-748]
2000 to 30000,,> 10000,,COC(=O)CCC(=O)NNc1cc(-n2ccnc2)c2ccc(Cl)c(Cl)c2n1 [I-758]

Structure (SMILES),"IC50 [1, 3] [nM]","IC50 [2, 4] [nM]","IC50 [2, 5] [nM]","IC50 [1, 6] [nM]"
O=C(O)CCOCC1CC2CCC1N2c1cc(-n2ccnc2)c2ccc(Cl)c(Cl)c2n1 (stereo not shown) [I-807],< 2000,,< 2000,

# Reference: patent publication US11873291B2, “Quinoline cGAS antagonist compounds” (ImmuneSensor Therapeutics, Inc., priority 2020, dated 2024)
